# Results as given in ChEMBL document CHEMBL1201861, “Genomics of Drug Sensitity in Cancer screening data, Wellcome Trust Sanger Institute”.
# Assays:
# Assay in all cases: cells
# Assay type in all cases: functional, cell-based, Homo sapiens
# Ca9-22 = system: Ca9-22;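 note: growth inhibition of Ca9-22 cells, read out with a cell viability assay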
# Description: SANGER: Inhibition of human Ca9-22 cell growth in a cell viability assay.
# HPAF-II = system: HPAF-II;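 note: growth inhibition of HPAF-II cells, read out with a cell viability assay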
# Description: SANGER: Inhibition of human HPAF-II cell growth in a cell viability assay.
# Kasumi 1 = system: Kasumi 1;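 note: growth inhibition of human Kasumi-1 cells, read out by a cell viability assay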
# Description: SANGER: Inhibition of human KASUMI-1 cell growth in a cell viability assay.
# SK-MEL-24 = system: SK-MEL-24;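 note: growth inhibition read out by a cell viability assay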
# Description: SANGER: Inhibition of human SK-MEL-24 cell growth in a cell viability assay.
# LN-405 = system: LN-405
# Description: SANGER: Inhibition of human LN-405 cell growth in a cell viability assay.
# NCI-H2291 = system: NCI-H2291
# Description: SANGER: Inhibition of human NCI-H2291 cell growth in a cell viability assay.
# OVCAR-8 = system: OVCAR-8;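 note: growth inhibition of human OVCAR-8 cells, read out by a cell viability assay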
# Description: SANGER: Inhibition of human OVCAR-8 cell growth in a cell viability assay.
# ESS-1 = system: ESS-1;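 note: growth inhibition of human ESS-1 cells, read out by a cell viability assay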
# Description: SANGER: Inhibition of human ESS-1 cell growth in a cell viability assay.
# COLO-792 = system: COLO-792
# Description: SANGER: Inhibition of human COLO-792 cell growth in a cell viability assay.
# SCC-4 = system: SCC-4;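 note: growth inhibition of human SCC-4 cells, read out as cell viability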
# Description: SANGER: Inhibition of human SCC-4 cell growth in a cell viability assay.
# NCI-H1437 = system: NCI-H1437;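 note: growth inhibition of human NCI-H1437 cells, read out by a cell viability assay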
# Description: SANGER: Inhibition of human NCI-H1437 cell growth in a cell viability assay.
# BT-549 = system: BT-549
# Description: SANGER: Inhibition of human BT-549 cell growth in a cell viability assay.
# HCT-116 = system: HCT-116
# Description: SANGER: Inhibition of human HCT-116 cell growth in a cell viability assay.
# BPH-1 = system: BPH-1;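 note: cell viability assay measuring growth inhibition of human BPH-1 cells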
# Description: SANGER: Inhibition of human BPH-1 cell growth in a cell viability assay.
# MKN-45 = system: MKN-45;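 note: growth inhibition of human MKN-45 cells, measured with a cell viability assay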
# Description: SANGER: Inhibition of human MKN45 cell growth in a cell viability assay.
# HOP-92 = system: HOP-92;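 note: cell viability readout, with IC50 reflecting inhibition of HOP-92 cell growth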
# Description: SANGER: Inhibition of human HOP-92 cell growth in a cell viability assay.
# HCC70 = system: HCC70;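 note: cell viability assay measuring how strongly the compound suppresses proliferation of HCC70 cells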
# Description: SANGER: Inhibition of human HCC70 cell growth in a cell viability assay.
# 786-0 = system: 786-0
# Description: SANGER: Inhibition of human 786-0 cell growth in a cell viability assay.
# GAMG = system: GAMG;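 note: cell growth inhibition measured by a viability assay in the GAMG human cell line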
# Description: SANGER: Inhibition of human GAMG cell growth in a cell viability assay.
# CAL-33 = system: CAL-33;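 note: growth inhibition of CAL-33 cells, read out with a cell viability assay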
# Description: SANGER: Inhibition of human CAL-33 cell growth in a cell viability assay.
# COR-L105 = system: COR-L105;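 note: cell growth inhibition determined with a viability assay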
# Description: SANGER: Inhibition of human COR-L105 cell growth in a cell viability assay.
# SN12C = system: SN12C;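 note: growth inhibition of human SN12C cells, measured by a cell viability assay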
# Description: SANGER: Inhibition of human SN12C cell growth in a cell viability assay.
# SNU-387 = system: SNU-387
# Description: SANGER: Inhibition of human SNU-387 cell growth in a cell viability assay.
# YKG-1 = system: YKG-1;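 note: cell growth inhibition, read out with a viability assay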
# Description: SANGER: Inhibition of human YKG-1 cell growth in a cell viability assay.
# H-EMC-SS = system: H-EMC-SS
# Description: SANGER: Inhibition of human H-EMC-SS cell growth in a cell viability assay.
# MDA-MB-175-VII = system: MDA-MB-175-VII
# BXPC-3 = system: BXPC-3;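 note: growth inhibition of human BxPC-3 cells, read out by a cell viability assay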
# Description: SANGER: Inhibition of human BxPC-3 cell growth in a cell viability assay.
# GMS-10 = system: GMS-10;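 note: growth inhibition of GMS-10 cells, read out as cell viability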
# Description: SANGER: Inhibition of human GMS-10 cell growth in a cell viability assay.
# NCI-H2087 = system: NCI-H2087;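 note: growth inhibition determined with a cell viability readout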
# Description: SANGER: Inhibition of human NCI-H2087 cell growth in a cell viability assay.
# NCI-H292 = system: NCI-H292;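 note: growth inhibition of NCI-H292 cells, read out with a cell viability assay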
# Description: SANGER: Inhibition of human NCI-H292 cell growth in a cell viability assay.
# MeWo = system: MeWo;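 note: growth inhibition of MeWo cells, determined by a cell viability readout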
# Description: SANGER: Inhibition of human Mewo cell growth in a cell viability assay.
# 8505C = system: 8505C
# Description: SANGER: Inhibition of human 8505C cell growth in a cell viability assay.
# SW1088 = system: SW1088;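 note: growth inhibition of human SW1088 cells, read out by a cell viability assay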
# Description: SANGER: Inhibition of human SW1088 cell growth in a cell viability assay.
# UMC-11 = system: UMC-11;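 note: growth inhibition of UMC-11 cells, read out with a cell viability assay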
# Description: SANGER: Inhibition of human UMC-11 cell growth in a cell viability assay.
# NCI-H1703 = system: NCI-H1703;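 note: growth inhibition of NCI-H1703 cells, read out via a cell viability assay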
# Description: SANGER: Inhibition of human NCI-H1703 cell growth in a cell viability assay.
# HuP-T4 = system: HuP-T4;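 note: cell viability assay measuring how much HuP-T4 cell growth is inhibited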
# Description: SANGER: Inhibition of human HuP-T4 cell growth in a cell viability assay.
# BHY = system: BHY;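 note: cell growth inhibition read out by a viability assay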
# Description: SANGER: Inhibition of human BHY cell growth in a cell viability assay.
# SBC-5 = system: SBC-5;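 note: cell viability assay read-out, IC50 is the concentration that inhibits growth of the cells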
# Description: SANGER: Inhibition of human SBC-5 cell growth in a cell viability assay.
molecule,measurement,setting,value
Cc1cn(-c2cc(NC(=O)c3ccc(C)c(Nc4nccc(-c5cccnc5)n4)c3)cc(C(F)(F)F)c2)cn1 [NILOTINIB],IC50,"Ca9-22; Homo sapiens, Ca9-22",> 2 µM
same,IC50,"HPAF-II; Homo sapiens, HPAF-II",> 2 µM
same,IC50,"Kasumi 1; Homo sapiens, Kasumi 1",0.0241 µM
same,IC50,"SK-MEL-24; Homo sapiens, SK-MEL-24",> 2 µM
same,IC50,"LN-405; Homo sapiens, LN-405",> 2 µM
same,IC50,"NCI-H2291; Homo sapiens, NCI-H2291",> 2 µM
same,IC50,"OVCAR-8; Homo sapiens, OVCAR-8",> 2 µM
same,IC50,"ESS-1; Homo sapiens, ESS-1",> 2 µM
same,IC50,"COLO-792; Homo sapiens, COLO-792",> 2 µM
same,IC50,"SCC-4; Homo sapiens, SCC-4",> 2 µM
same,IC50,"NCI-H1437; Homo sapiens, NCI-H1437",> 2 µM
same,IC50,"BT-549; Homo sapiens, BT-549",> 2 µM
same,IC50,"HCT-116; Homo sapiens, HCT-116",> 2 µM
same,IC50,"BPH-1; Homo sapiens, BPH-1",> 2 µM
same,IC50,"MKN-45; Homo sapiens, MKN-45",> 2 µM
same,IC50,"HOP-92; Homo sapiens, HOP-92",> 2 µM
same,IC50,"HCC70; Homo sapiens, HCC70",> 2 µM
same,IC50,786-0; Homo sapiens,> 2 µM
same,IC50,"GAMG; Homo sapiens, GAMG",> 2 µM
same,IC50,"CAL-33; Homo sapiens, CAL-33",> 2 µM
same,IC50,"COR-L105; Homo sapiens, COR-L105",> 2 µM
same,IC50,"SN12C; Homo sapiens, SN12C",> 2 µM
same,IC50,"SNU-387; Homo sapiens, SNU-387",> 2 µM
same,IC50,"YKG-1; Homo sapiens, YKG-1",> 2 µM
same,IC50,"H-EMC-SS; Homo sapiens, H-EMC-SS",> 2 µM
same,IC50,"MDA-MB-175-VII; Homo sapiens, MDA-MB-175-VII",> 2 µM
same,IC50,"BXPC-3; Homo sapiens, BXPC-3",> 2 µM
same,IC50,"GMS-10; Homo sapiens, GMS-10",> 2 µM
same,IC50,"NCI-H2087; Homo sapiens, NCI-H2087",> 2 µM
same,IC50,"NCI-H292; Homo sapiens, NCI-H292",> 2 µM
same,IC50,"MeWo; Homo sapiens, MeWo",> 2 µM
same,IC50,"8505C; Homo sapiens, 8505C",> 2 µM
same,IC50,"SW1088; Homo sapiens, SW1088",> 2 µM
same,IC50,"UMC-11; Homo sapiens, UMC-11",> 2 µM
same,IC50,"NCI-H1703; Homo sapiens, NCI-H1703",1.19 µM
same,IC50,"HuP-T4; Homo sapiens, HuP-T4",> 2 µM
same,IC50,"BHY; Homo sapiens, BHY",> 2 µM
same,IC50,"SBC-5; Homo sapiens, SBC-5",> 2 µM
CO[C@H]1C[C@@H]2CC[C@@H](C)[C@@](O)(O2)C(=O)C(=O)N2CCCC[C@H]2C(=O)O[C@H]([C@H](C)C[C@@H]2CC[C@@H](OC(=O)C(C)(CO)CO)[C@H](OC)C2)CC(=O)[C@H](C)/C=C(\C)[C@@H](O)[C@@H](OC)C(=O)[C@H](C)C[C@H](C)/C=C/C=C/C=C/1C [TEMSIROLIMUS],IC50,"Ca9-22; Homo sapiens, Ca9-22",0.0966 µM
same,IC50,"HPAF-II; Homo sapiens, HPAF-II",> 0.2 µM
same,IC50,"Kasumi 1; Homo sapiens, Kasumi 1",0.0562 µM
same,IC50,"SK-MEL-24; Homo sapiens, SK-MEL-24",0.077 µM
same,IC50,"LN-405; Homo sapiens, LN-405",0.135 µM
same,IC50,"NCI-H2291; Homo sapiens, NCI-H2291",> 0.2 µM
same,IC50,"OVCAR-8; Homo sapiens, OVCAR-8",0.136 µM
same,IC50,"ESS-1; Homo sapiens, ESS-1",> 0.2 µM
same,IC50,"COLO-792; Homo sapiens, COLO-792",> 0.2 µM
same,IC50,"SCC-4; Homo sapiens, SCC-4",> 0.2 µM
same,IC50,"NCI-H1437; Homo sapiens, NCI-H1437",0.103 µM
same,IC50,"BT-549; Homo sapiens, BT-549",> 0.2 µM
same,IC50,"HCT-116; Homo sapiens, HCT-116",> 0.2 µM
same,IC50,"BPH-1; Homo sapiens, BPH-1",0.0324 µM
same,IC50,"MKN-45; Homo sapiens, MKN-45",> 0.2 µM
same,IC50,"HOP-92; Homo sapiens, HOP-92",> 0.2 µM
same,IC50,"HCC70; Homo sapiens, HCC70",0.158 µM
same,IC50,786-0; Homo sapiens,0.0517 µM
same,IC50,"GAMG; Homo sapiens, GAMG",0.00382 µM
same,IC50,"CAL-33; Homo sapiens, CAL-33",> 0.2 µM
same,IC50,"COR-L105; Homo sapiens, COR-L105",0.0545 µM
same,IC50,"SN12C; Homo sapiens, SN12C",0.183 µM
same,IC50,"SNU-387; Homo sapiens, SNU-387",0.175 µM
same,IC50,"YKG-1; Homo sapiens, YKG-1",> 0.2 µM
same,IC50,"H-EMC-SS; Homo sapiens, H-EMC-SS",> 0.2 µM
same,IC50,"MDA-MB-175-VII; Homo sapiens, MDA-MB-175-VII",> 0.2 µM
same,IC50,"BXPC-3; Homo sapiens, BXPC-3",> 0.2 µM
same,IC50,"GMS-10; Homo sapiens, GMS-10",> 0.2 µM
same,IC50,"NCI-H2087; Homo sapiens, NCI-H2087",> 0.2 µM
same,IC50,"NCI-H292; Homo sapiens, NCI-H292",0.00984 µM
same,IC50,"MeWo; Homo sapiens, MeWo",0.0494 µM
same,IC50,"8505C; Homo sapiens, 8505C",> 0.2 µM
same,IC50,"SW1088; Homo sapiens, SW1088",0.0318 µM
same,IC50,"UMC-11; Homo sapiens, UMC-11",0.0894 µM
same,IC50,"NCI-H1703; Homo sapiens, NCI-H1703",0.0232 µM
same,IC50,"HuP-T4; Homo sapiens, HuP-T4",> 0.2 µM
same,IC50,"BHY; Homo sapiens, BHY",> 0.2 µM
same,IC50,"SBC-5; Homo sapiens, SBC-5",0.103 µM
CS(=O)(=O)c1ccc(C(=O)Nc2ccc(Cl)c(-c3ccccn3)c2)c(Cl)c1 [VISMODEGIB],IC50,"Ca9-22; Homo sapiens, Ca9-22",> 10 µM
same,IC50,"HPAF-II; Homo sapiens, HPAF-II",> 10 µM
same,IC50,"SK-MEL-24; Homo sapiens, SK-MEL-24",> 10 µM
same,IC50,"LN-405; Homo sapiens, LN-405",> 10 µM
same,IC50,"NCI-H2291; Homo sapiens, NCI-H2291",> 10 µM
same,IC50,"OVCAR-8; Homo sapiens, OVCAR-8",> 10 µM
same,IC50,"ESS-1; Homo sapiens, ESS-1",> 10 µM
same,IC50,"COLO-792; Homo sapiens, COLO-792",> 10 µM
same,IC50,"SCC-4; Homo sapiens, SCC-4",> 10 µM
same,IC50,"NCI-H1437; Homo sapiens, NCI-H1437",> 10 µM
same,IC50,"BT-549; Homo sapiens, BT-549",> 10 µM
same,IC50,"HCT-116; Homo sapiens, HCT-116",> 10 µM
same,IC50,"BPH-1; Homo sapiens, BPH-1",> 10 µM
same,IC50,"MKN-45; Homo sapiens, MKN-45",> 10 µM
same,IC50,"HOP-92; Homo sapiens, HOP-92",> 10 µM
same,IC50,"HCC70; Homo sapiens, HCC70",> 10 µM
same,IC50,786-0; Homo sapiens,> 10 µM
same,IC50,"GAMG; Homo sapiens, GAMG",> 10 µM
same,IC50,"CAL-33; Homo sapiens, CAL-33",> 10 µM
same,IC50,"COR-L105; Homo sapiens, COR-L105",> 10 µM
same,IC50,"SN12C; Homo sapiens, SN12C",> 10 µM
same,IC50,"SNU-387; Homo sapiens, SNU-387",> 10 µM
same,IC50,"YKG-1; Homo sapiens, YKG-1",> 10 µM
same,IC50,"H-EMC-SS; Homo sapiens, H-EMC-SS",> 10 µM
same,IC50,"MDA-MB-175-VII; Homo sapiens, MDA-MB-175-VII",> 10 µM
same,IC50,"BXPC-3; Homo sapiens, BXPC-3",> 10 µM
same,IC50,"GMS-10; Homo sapiens, GMS-10",> 10 µM
same,IC50,"NCI-H2087; Homo sapiens, NCI-H2087",> 10 µM
same,IC50,"NCI-H292; Homo sapiens, NCI-H292",> 10 µM
same,IC50,"MeWo; Homo sapiens, MeWo",> 10 µM
same,IC50,"8505C; Homo sapiens, 8505C",> 10 µM
same,IC50,"SW1088; Homo sapiens, SW1088",> 10 µM
same,IC50,"UMC-11; Homo sapiens, UMC-11",> 10 µM
same,IC50,"NCI-H1703; Homo sapiens, NCI-H1703",> 10 µM
same,IC50,"HuP-T4; Homo sapiens, HuP-T4",> 10 µM
same,IC50,"BHY; Homo sapiens, BHY",> 10 µM
same,IC50,"SBC-5; Homo sapiens, SBC-5",> 10 µM
CISPLATIN,IC50,Ca9-22; ca9-22,10.4 µM
same,IC50,HPAF-II; hpaf-ii,114 µM
same,IC50,Kasumi 1; kasumi 1,62.1 µM
same,IC50,SK-MEL-24; sk-mel-24,43.7 µM
same,IC50,LN-405; ln-405,15.5 µM
same,IC50,NCI-H2291; nci-h2291,458 µM
same,IC50,OVCAR-8; ovcar-8,19.9 µM
same,IC50,ESS-1; ess-1,2.54 µM
same,IC50,COLO-792; colo-792,5.73 µM
same,IC50,SCC-4; scc-4,31 µM
same,IC50,NCI-H1437; nci-h1437,84.4 µM
same,IC50,BT-549; bt-549,14.6 µM
same,IC50,HCT-116; hct-116,8.68 µM
same,IC50,BPH-1; bph-1,17.9 µM
same,IC50,MKN-45; mkn-45,28.6 µM
same,IC50,HOP-92; hop-92,3.51 µM
same,IC50,HCC70; hcc70,9.92 µM
same,IC50,786-0,4.47 µM
same,IC50,GAMG; gamg,289 µM
same,IC50,CAL-33; cal-33,41.3 µM
same,IC50,COR-L105; cor-l105,22.7 µM
same,IC50,SN12C; sn12c,17.1 µM
same,IC50,SNU-387; snu-387,26.1 µM
same,IC50,YKG-1; ykg-1,10.3 µM
same,IC50,H-EMC-SS; h-emc-ss,21.2 µM
same,IC50,MDA-MB-175-VII; mda-mb-175-vii,69.7 µM
same,IC50,BXPC-3; bxpc-3,22.3 µM
same,IC50,GMS-10; gms-10,85.2 µM
same,IC50,NCI-H2087; nci-h2087,14.5 µM
same,IC50,NCI-H292; nci-h292,364 µM
same,IC50,MeWo; mewo,16.7 µM
same,IC50,8505C; 8505c,34.6 µM
same,IC50,SW1088; sw1088,9.7 µM
same,IC50,UMC-11; umc-11,903 µM
same,IC50,NCI-H1703; nci-h1703,148 µM
same,IC50,HuP-T4; hup-t4,37.4 µM
same,IC50,BHY; bhy,49.3 µM
same,IC50,SBC-5; sbc-5,70.1 µM
